Experimental data from patent US20260263593A1, “ALLERGY ANTIGEN AND EPITOPE THEREOF” (HOYU CO., LTD., priority 2018, published 2026).

Tested on: IgE antibody present in the serum of a shrimp-allergic patient
Experiment: Epitope mapping (1): array of overlapping 15-amino-acid peptides, chemiluminescence
Format: binding, human
Details: 15-amino-acid peptide array; serum of 37 patients; difference from N2nd value of 5 non-shrimp-allergic subjects at least 35,000
Description: Epitope mapping was carried out using a library of overlapping peptides (length: 15 amino acids) corresponding to the amino acid sequences identified as allergy components of shrimp and the amino acid sequence of arginine kinase. Specifically, the library of overlapping peptides was prepared on the basis of the amino acid sequences of SEQ ID NOs: 117, 141, 146, 2, 45, 87, 276, 161, 230, 179, 362, 381, 399, 421, 455, 481, 486, 520, 541, 300 and 306, and arginine kinase.
The peptides to be synthesized were shifted by 10 amino acids.
For preparation of peptide arrays, the Intavis CelluSpots™ technique was used. Specifically, the peptide arrays were prepared by the following procedure: (1) synthesizing peptides of interest on amino-modified cellulose disks using an automated chemical synthesis apparatus (Intavis MultiPep RS), (2) dissolving the amino-modified cellulose disks to obtain a cellulose-bound peptide solution, and (3) spotting the cellulose-bound peptides onto coated glass slides. The details of each procedure are as described below.
Peptide synthesis was carried out in incremental steps through 9-fluorenylmethoxycarbonyl (Fmoc) chemical reaction on amino-modified cellulose disks in 384-well synthesis plates. Specifically, amino acids in which a Fmoc group is bonded to an amino group were activated in a solution of N,N′-diisopropylcarbodiimide (DIC) and 1-hydroxybenzotriazole (HOBt) in dimethylformamide (DMF) and added dropwise to the cellulose disks so that the Fmoc group-bound amino acids were bound to the amino groups on the cellulose disks (coupling). Unreacted amino groups were capped with acetic anhydride and washed with DMF. Furthermore, the Fmoc groups were eliminated from the amino groups of the amino acids bound to the amino groups on the cellulose disks by treatment with piperidine and washing with DMF. The amino acids bound to the amino groups on the cellulose disks were repetitively subjected to the coupling, the capping, and the Fmoc group elimination described above to elongate the amino terminus for peptide synthesis.
The peptides-bound cellulose disks of interest obtained above in the subsection titled “(1) Synthesis of peptide” were transferred to 96-well plates and treated with a side chain deprotection mixed solution of trifluoroacetic acid (TFA), dichloromethane, triisopropylsilane (TIPS), and water for deprotection of amino acid side chains. Then, the deprotected cellulose-bound peptides were dissolved in a mixed solution of TFA, trifluoromethanesulfonic acid (TFMSA), TIPS, and water and precipitated in tetrabutyl methyl ether (TBME), and the precipitate was resuspended in dimethyl sulfoxide (DMSO) and mixed with a mixed solution of NaCl, sodium citrate, and water to obtain a peptide solution for slide spotting.
The peptide solution for slide spotting obtained above in the subsection titled “(2) Dissolution of amino-modified cellulose disk” was spotted onto Intavis CelluSpots™ slides using Intavis Slide Spotting Robot, and the slides were dried to prepare peptide arrays.
The presence or absence of binding, to each peptide fragment, of an IgE antibody present in the serum of a shrimp-allergic patient was measured through antigen-antibody reaction using the peptide arrays. […]

Substance | Peptide bound to an IgE antibody in serum in a patient-specific manner
E24: common 15-residue IgE-binding epitope sequence of polypeptide (E24), arginine kinase-derived (LFDPIIEDYHVGFKQ; VAR_SEQ 1..15 epitope) [Epitope E24] | bound to an IgE antibody in serum in a patient-specific manner
E45: common 15-residue IgE-binding epitope sequence of polypeptide (E45), pyruvate kinase 3-derived (WHKQLFTELSQQVHL; VAR_SEQ 1..15 epitope) [Epitope E45] | bound to an IgE antibody in serum in a patient-specific manner
E43: common 15-residue IgE-binding epitope sequence of polypeptide (E43), myosin heavy chain type 1-derived (EIDKRIQEKEEEFDA; VAR_SEQ 1..15 epitope) [Epitope E43] | bound to an IgE antibody in serum in a patient-specific manner
E27: common 15-residue IgE-binding epitope sequence of polypeptide (E27), myosin heavy chain type 1-derived (KLVTVKLPSGETKDF; VAR_SEQ 1..15 epitope) [Epitope E27] | bound to an IgE antibody in serum in a patient-specific manner
E41: common 15-residue IgE-binding epitope sequence of polypeptide (E41), myosin heavy chain type 1-derived (MTQETVADIERQHKD; VAR_SEQ 1..15 epitope) [Epitope E41] | bound to an IgE antibody in serum in a patient-specific manner
E23: common 15-residue IgE-binding epitope sequence of polypeptide (E23), cyclophilin A-derived (SCFHRVIPNFMCQGG; VAR_SEQ 1..15 epitope) [Epitope E23] | bound to an IgE antibody in serum in a patient-specific manner
E44: common 15-residue IgE-binding epitope sequence of polypeptide (E44), hemocyanin subunit L1-derived (VRIFAWPHLDNNGIK; VAR_SEQ 1..15 epitope) [Epitope E44] | bound to an IgE antibody in serum in a patient-specific manner
E15: common 15-residue IgE-binding epitope sequence of polypeptide (E15), hemocyanin subunit L1-derived (LIPKGNEQGLEFDLV; VAR_SEQ 1..15 epitope) [Epitope E15] | bound to an IgE antibody in serum in a patient-specific manner
E31: common 15-residue IgE-binding epitope sequence of polypeptide (E31), myosin heavy chain type 1-derived (ESRGRATLLGKFRNL; VAR_SEQ 1..15 epitope) [Epitope E31] | bound to an IgE antibody in serum in a patient-specific manner
E42: common 15-residue IgE-binding epitope sequence of polypeptide (E42), myosin heavy chain type 1-derived (QLEDTKKMVDDESRE; VAR_SEQ 1..15 epitope) [Epitope E42] | bound to an IgE antibody in serum in a patient-specific manner
E21: common 15-residue IgE-binding epitope sequence of polypeptide (E21), troponin I-derived (MADEEAKKKQEEIDR; VAR_SEQ 1..15 epitope) [Epitope E21] | bound to an IgE antibody in serum in a patient-specific manner
E38: common 15-residue IgE-binding epitope sequence of polypeptide (E38), myosin heavy chain type 1-derived (LDKELYRCGKTKVFF; VAR_SEQ 1..15 epitope) [Epitope E38] | bound to an IgE antibody in serum in a patient-specific manner
E30: common 15-residue IgE-binding epitope sequence of polypeptide (E30), myosin heavy chain type 1-derived (MLEAKDDKKAATACF; VAR_SEQ 1..15 epitope) [Epitope E30] | bound to an IgE antibody in serum in a patient-specific manner
E32: common 15-residue IgE-binding epitope sequence of polypeptide (E32), myosin heavy chain type 1-derived (INELEIALDHANKAN; VAR_SEQ 1..15 epitope) [Epitope E32] | bound to an IgE antibody in serum in a patient-specific manner
E10: common 15-residue IgE-binding epitope sequence of polypeptide (E10), myosin heavy chain type 2-derived (HFRIKAVYEENLEHL; VAR_SEQ 1..15 epitope) [Epitope E10] | bound to an IgE antibody in serum in a patient-specific manner
E37: common 15-residue IgE-binding epitope sequence of polypeptide (E37), myosin heavy chain type 1-derived (IMHQLTCNGVLEGIR; VAR_SEQ 1..15 epitope) [Epitope E37] | bound to an IgE antibody in serum in a patient-specific manner
E35: common 15-residue IgE-binding epitope sequence of polypeptide (E35), myosin heavy chain type 1-derived (ERGYHIFYQMMSDQV; VAR_SEQ 1..15 epitope) [Epitope E35] | bound to an IgE antibody in serum in a patient-specific manner
E18: common 15-residue IgE-binding epitope sequence of polypeptide (E18), phosphopyruvate hydratase-derived (NKLAMQEFMILPTGA; VAR_SEQ 1..15 epitope) [Epitope E18] | bound to an IgE antibody in serum in a patient-specific manner
E25: common 15-residue IgE-binding epitope sequence of polypeptide (E25), arginine kinase-derived (VNVDPEGKFVISTRV; VAR_SEQ 1..15 epitope) [Epitope E25] | bound to an IgE antibody in serum in a patient-specific manner
E36: common 15-residue IgE-binding epitope sequence of polypeptide (E36), myosin heavy chain type 1-derived (GNMKFKQRGREEQAE; VAR_SEQ 1..15 epitope) [Epitope E36] | bound to an IgE antibody in serum in a patient-specific manner
E50: common 15-residue IgE-binding epitope sequence of polypeptide (E50), cyclophilin A-derived (AADNQPVGRIVMELR; VAR_SEQ 1..15 epitope) [Epitope E50] | bound to an IgE antibody in serum in a patient-specific manner
E49: common 15-residue IgE-binding epitope sequence of polypeptide (E49), troponin I-derived (RKKKLRLLLRKKAAE; VAR_SEQ 1..15 epitope) [Epitope E49] | bound to an IgE antibody in serum in a patient-specific manner
E48: common 15-residue IgE-binding epitope sequence of polypeptide (E48), troponin I-derived (EEIDRKKAEVRKRLE; VAR_SEQ 1..15 epitope) [Epitope E48] | bound to an IgE antibody in serum in a patient-specific manner
E4: common 15-residue IgE-binding epitope sequence of polypeptide (E4), myosin heavy chain type 1-derived (HGELEESRTLLEQSD; VAR_SEQ 1..15 epitope) [Epitope E4] | bound to an IgE antibody in serum in a patient-specific manner
